Measured values as given in PMC6508677, “Identification of druggable small molecule antagonists of the Plasmodium falciparum hexose transporter PfHT and assessment of ligand access to the glucose permeation pathway via FLAG-mediated protein engineering” (PLoS ONE, 2019).
Values joined by “and” are separate entries in the source; they are usually repeats but may differ in a detail not shown here. Equal entries are not always repeated. Where two headings read alike, the source gives them in different places.

Target: T1, hGLUT8 (Homo sapiens, UniProt Q9NY64, E7R/E8R)
T1 construct: expressed in transfected cells; host or cells: HEK293 (HEK293-FLIP, native hGLUT1 knocked down)
T1 sequence (Q9NY64 1-477 E7R/E8R): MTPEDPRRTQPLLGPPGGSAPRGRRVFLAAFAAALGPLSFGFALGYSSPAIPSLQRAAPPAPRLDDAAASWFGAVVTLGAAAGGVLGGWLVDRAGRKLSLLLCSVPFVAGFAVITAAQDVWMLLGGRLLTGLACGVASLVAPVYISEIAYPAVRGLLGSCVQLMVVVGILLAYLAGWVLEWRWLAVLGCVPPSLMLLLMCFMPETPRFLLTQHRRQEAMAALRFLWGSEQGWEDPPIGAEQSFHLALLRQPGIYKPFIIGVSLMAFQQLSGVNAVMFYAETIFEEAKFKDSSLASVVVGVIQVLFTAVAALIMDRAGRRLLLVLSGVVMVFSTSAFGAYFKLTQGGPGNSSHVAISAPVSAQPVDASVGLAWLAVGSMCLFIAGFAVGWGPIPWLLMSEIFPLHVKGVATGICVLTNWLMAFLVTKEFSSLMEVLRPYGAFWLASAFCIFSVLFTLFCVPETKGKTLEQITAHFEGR
Experiment: [3H]-D-fructose uptake by HEK293 cells overexpressing hGLUT8
Format: cell-based
Text: Generation of HEK293 cells overexpressing PfHT and human GLUTs 1–4 were described elsewhere. Briefly, HEK293 cells were transfected with pcDNA3.1 FLII12Pglu-7006 (Addgene), containing the fluorescence resonance energy transfer (FRET) glucose sensor (HEK293-FLIP) and PfHT, human GLUT1 (hGLUT1), hGLUT2, hGLUT3, hGLUT4, hGLUT5 or hGLUT8 using Optifect (Life Technologies) according to manufacturer’s specifications. To increase retention of GLUT8 at the plasma membrane, the dileucine sorting signal E^7E^8XXXLL was modified to R^7R^8XXXLL as described in [17]. Stable transfectants were selected for G418 and hygromycin resistance to select for FRET sensor and hexose transporter, respectively. HEK293-FLIP cells were also used to generate cells stably transfected with FLAG-tagged PfHT (FTPfHT). FLAG tag ([…]) followed by a triple glycine linker and a tobacco etch virus (TEV) protease site (ENLYFQS) followed by a triple glycine linker was added to the N-terminus of PfHT via PCR [18] using Phusion Hot Start II High-Fidelity DNA Polymerase (Fisher Scientific). Single clones were selected by comparing their abilities to transport glucose as assayed via FRET and radiolabeled hexose uptake. In all cell lines, except for HEK293 cells overexpressing hGLUT1 and hGLUT5, native hGLUT1 was knocked down using shRNA as described elsewhere. Transcript levels of the individual GLUTs expressed in each cell line are as described in [13, 15] and in S1 Fig.
Glucose uptake by P. falciparum was performed essentially as described. P. falciparum strain 3D7 was cultured in 100 mm tissue culture dishes (Techno Plastic Products) in a 2% suspension of human erythrocytes and RPMI 1640 medium until reaching > 7.5% parasitemia. Cells were pelleted via centrifugation and resuspended in RPMI 1640 medium. To determine the uptake of radiolabeled glucose into the parasite, parasites were isolated from infected erythrocytes by permeablization with saponin (0.05 w/v), followed by centrifugation, aspiration of supernatant and washing of the pellet 3X with saline solution (135 mM NaCl, 2 mM KCl, 25 mM HEPES, 0.2 mM glucose and 1 mM MgCl2; pH 7.1) to remove cellular debris. WU-1 or DMSO vehicle were added to 100 μl parasites (resuspended in saline) 5 min prior to the addition of 100 μl [^14C]2-DOG (0.2- μCi/ml final concentration). 2-DG uptake was stopped after 2 min by layering the entire reaction over 300 μl of an oil mixture (5:4 mix of dibutyl phthalate / dinonyl phthalate) in Eppendorf tubes and centrifuged at 15,850 × g for 2 mins. The ratio of the estimated intracellular concentration of radiolabel relative to the extracellular concentration were calculated as described. Uptake of radiolabeled hexose into HEK293 cells was measured in glucose-free HBSS as described previously. Briefly, cells were plated at 400,000 cells/well overnight at 37°C in 24-well plates pre-treated with PEI. After 30-min incubation at 37°C in glucose-free HBSS in the presence of vehicle or increasing concentrations of compound, 2-DG uptake was measured in glucose-free HBSS for 4 min at 37°C. Cultures were washed in ice-cold 1X PBS and lysed in 0.1% Triton X-100 in 1X PBS. Radiolabeled hexose uptake was determined by liquid scintillation counting (Ultima Gold, Thermo Fisher) and normalized to total protein per well. Uptake data are plotted as percent uptake relative to vehicle-treated cells. Kinetic analyses were performed using the indicated concentrations of substrate and WU-1, with quenching of uptake after 1 min incubation. Incubation times had been previously determined as being in the linear range of time-dependent radiolabeled hexose uptake (2 min for 2-DG uptake into freed parasites; 2 and 4 min for D-Frc and 2-DG uptake HEK cell lines, respectively). Data were fit by least squares nonlinear regression analysis using GraphPad Prism 6.0 software.

[1] = HEK293, 2 min, read-out: D-frc Uptake AVE

SMILES: Cc1ccc(S(=O)(=O)CCNC(=O)c2c(-c3c(Cl)cccc3Cl)noc2C)cc1 [WU-1, 3-(2,6-dichlorophenyl)-5-methyl-N-[2-(4-methylbenzenesulfonyl)ethyl]-1,2-oxazole-4-carboxamide]
- IC50 (GLUT8, D-frc Uptake, average of Expt 1-3, read-out: AVE IC50): 22 µM
- IC50 (GLUT8, D-frc Uptake, single experiments Expt 1-3, read-out: IC50): 23.3 µM and 19.7 µM and 23.1 µM
- IC50 (GLUT8 cell line, read-out: IC50, D-fructose (Frc) uptake): 22 ± 1.2 µM
- remaining activity at 0.001 µM (HEK293, 2 min, GLUT8, concentration 0.001 µM, Expt 1-3, read-out: D-frc Uptake AVE): 100%
- remaining activity at 0.313 µM (HEK293, 2 min, GLUT8, concentration 0.313 µM, read-out: D-frc Uptake AVE): 96.4%
- remaining activity at 0.625 µM (HEK293, 2 min, GLUT8, concentration 0.625 µM, read-out: D-frc Uptake AVE): 90%
- remaining activity at 1.25 µM (HEK293, 2 min, GLUT8, concentration 1.250 µM, read-out: D-frc Uptake AVE): 89.1%
- remaining activity at 2.5 µM (HEK293, 2 min, GLUT8, concentration 2.500 µM, read-out: D-frc Uptake AVE): 86%
- remaining activity at 5 µM (HEK293, 2 min, GLUT8, concentration 5.0 µM, read-out: D-frc Uptake AVE): 78.5%
- remaining activity at 10 µM (HEK293, 2 min, GLUT8, concentration 10.0 µM, read-out: D-frc Uptake AVE): 71.4%
- remaining activity at 20 µM (HEK293, 2 min, GLUT8, concentration 20 µM, read-out: D-frc Uptake AVE): 53%
- remaining activity at 40 µM (HEK293, 2 min, GLUT8, concentration 40 µM, read-out: D-frc Uptake AVE): 46.1%
- remaining activity at 80 µM (HEK293, 2 min, GLUT8, concentration 80 µM, read-out: D-frc Uptake AVE): 30.5%
- remaining activity at 160 µM (HEK293, 2 min, GLUT8, concentration 160 µM, read-out: D-frc Uptake AVE): 24.8%
- remaining activity at 225 µM (HEK293, 2 min, GLUT8, concentration 225 µM, read-out: D-frc Uptake AVE): 22.6%
- remaining activity at 0.625 µM [1]: 91.6%
- remaining activity at 2.5 µM [1]: 84.6%
- Selectivity Index (PfHT over GLUT8), Frc (calculated from IC50s): 4.4
